Where two headings read alike, the source gives them in different places.
Assays:
isolated rabbit ileum = experiment: Effect on the smooth musculature, isolated rabbit ileum
[1] = Acute toxicity, single administration (LD50, Litchfield and Wilcoxon method); details: in vivo, rat, read-out: LD50 (95% confidence limit)
From the text: The toxicity of single administrations of AP 698 has been studied in the rat, treating the animals by the oral and intraperitoneal routes with various dosage levels of AP 698.
The LD50 values, determined by the Litchfield and Wilcoxon method (J. Pharmacol. Exp. Therap., 1949, 96, 99) are given in Table 1.

[2] = Pharmacokinetics in vivo after oral administration of tritium-labelled AP 698; details: rat; for presence in the plasma: after oral AP 698
From the text: (§1) The pharmacokinetics of enzyme hydrolysis has been studied both in vitro and in vivo in the rat after oral administration of AP 698 labelled with tritium.

[3] = test system: hypobaric hypoxia in the mouse; experiment: Changes in mortality caused by hypobaric hypoxia (survival time); format: in vivo; details: for Survival time (mean values ± standard error): 190 mmHg, controls 72,5 ± 3,5
Method: The experiments were conducted on mice confined in cages in which the pressure was reduced to a level (190 mmHg) which caused the death of the animals.
After determining the survival time of the controls, the effects of various dosage levels of AP 698 were studied.

[4] = Enzyme hydrolysis in vitro, incubation with rat plasma; format: in vitro ADME; details: apovincaminic acid formed measured by gas chromatography
From the text: as §1

[5] = test system: cerebral electrical activity in the waking rabbit; experiment: Effect on deterioration of electrogenesis by cerebral ischaemia (EEG); format: in vivo
[6] = 16 mg/kg i.v., N.S. (MannWhitney)
[7] = 25,6 mg/kg i.v., significance 0.01 (MannWhitney)
[8] = 41,0 mg/kg i.v., significance 0.01 (MannWhitney)
[9] = post-ischaemic phase, contrary to controls
[10] = treated animals vs controls, i.v.

In the case of `CCC12C=C(C(=O)OC3OC(=O)c4ccccc43)n3c4c(c5ccccc53)CCN(CCC1)C42` (stereo not drawn) [AP 698, 13a-ethyl-2,3,5,6,13a,13b-hexahydro-1H-indolo(3,2,1-de)pyrido(3,2,1-ij)(1,5)naphthyridin-12-phthalidyl carboxylate], the myorelaxant activity (isolated rabbit ileum; isolated rabbit ileum, compared with vincamine under the same conditions) is reported as “considerable myorelaxant activity, decidedly higher than that displayed by vincamine”, the “effect on the tonus and amplitude of the contractions, compared with vincamine” value (isolated rabbit ileum; musculature in basal conditions and made hypertonic with sodium or serotonin) is reported as “greater effect” and the LD50 ([1]; ip, i.p.) is reported as 684 mg/kg. The LD50 ([1]; po, p.o.) was > 3000 mg/kg, the “presence in the plasma” value [2] was “both unchanged AP 698 and apovincaminic acid in the plasma” and the half-life ([2]; oral, plasma, read-out: half-life of unchanged AP 698) was 72 min. The “Survival time (mean values ± standard error)” value [3, 6] was 67,5 ± 2,5 sec, the “Variation (survival time)” value [3, 6] was -6,9% and the “Survival time (mean values ± standard error)” value [3, 7] was 116,3 ± 13,5 sec. The “Variation (survival time)” value [3, 7] was “+60,4%”, the “Survival time (mean values ± standard error)” value [3, 8] was 157,9 ± 33,2 sec and the “Variation (survival time)” value [3, 8] was “+117,8%”. The “survival time, protective effect on induced hypobaric hypoxia (in words)” value ([3]; mouse, various dosage levels) was “highly significant extension of the survival time with a substantial protective effect”, the half-life [4] was 7.3 min and the minimal effective dose ([5]; Oryctolagus cuniculus, intravenous at the end of the ischaemic manoeuvre, dose-dependent, read-out: lowest dose with evident therapeutic effect) was 0.5 mg/kg. For the same compound, the “amplitude of the theta rhythm” value ([5]; between the 10th and 20th minutes, contrary to controls) was “not reduced”, the “(theta+beta)/(delta+alpha) ratios” value ([5]; between the 14th and the 25th minutes, vs controls) was “decrease less than in the controls” and the “frequency of the theta rhythm” value [5, 9] was “not increased”. For the same compound, the “relative representation times (theta rhythm)” value [5, 9] was “not dispersed”, the beta rhythm ([5]; post-ischaemic phase, vs controls) was “less reduced than in the controls” and the “recovery of the EEG and of the cortical reactivity to stimulation” value [5, 10] was “quicker recovery”. For the same compound, the “return to a trace comparable to that recorded before the ischaemic manoeuvre” value [5, 10] was “return in a shorter time”.
For `CCC12C=C(C(=O)O)n3c4c(c5ccccc53)CCN(CCC1)C42` (stereo not drawn) [apovincaminic acid], the “levels of apovincaminic acid following the administration of AP 698” value [2] was “persistent levels” and the “presence in the plasma” value [2] was “both unchanged AP 698 and apovincaminic acid in the plasma”.
